The text below walks through data of ChEMBL document CHEMBL1154909, “Dammarane-type glycosides from Gynostemma pentaphyllum and their effects on IL-4-induced eotaxin expression in human bronchial epithelial cells” (J Nat Prod, 2010).

A short description of data set [1]: Antiinflammatory activity in human BEAS2B cells assessed as inhibition of IL4 and TNF-alpha-induced eotaxin production at 10 uM after 48 hrs by ELISA pretreated for 2 hrs before IL4 and TNFalpha challenge. Format: functional, BEAS-2B. (In general: ELISA stands for enzyme-linked immunosorbent assay.)
In data set [2] the test system is BEAS-2B. The experiment in a line: Antiinflammatory activity in human BEAS2B cells assessed as inhibition of IL4-induced eotaxin production after 48 hrs by ELISA pretreated for 2 hrs before IL4 challenge. Format: functional, cell-based.
Data set [3] in a line: Cytotoxicity against human BEAS2B cells at 10 uM after 48 hrs by MTT assay in the presence of IL4. Format: cell-based. Particulars: beas-2b. (In general: Tetrazolium dyes change colour on reduction, which living cells bring about.)
Data set [4] is described as follows: Antiinflammatory activity in human BEAS2B cells assessed as inhibition of IL4 and TNF-alpha-induced eotaxin production after 48 hrs by ELISA pretreated for 2 hrs before IL4 and TNFalpha challenge (Rvb= 450+/-38.4 pg/mL). Format: functional, BEAS-2B.
A short description of data set [5]: Cytotoxicity against human BEAS2B cells at 10 uM after 48 hrs by MTT assay. The settings on record: beas-2b. Format: cell-based.
A short description of data set [6]: Antiinflammatory activity in human BEAS2B cells assessed as inhibition of IL4-induced eotaxin production at 10 uM after 48 hrs by ELISA pretreated for 2 hrs before IL4 challenge (reference value: 58.5+/-4.7 ng/mL). Format: functional, BEAS-2B.

Regarding `CC(=O)OC[C@H]1O[C@@H](O[C@H]2[C@H](O[C@@](C)(CCC=C(C)C)[C@H]3CC[C@]4(C)[C@@H]3[C@H](O)C[C@@H]3[C@@]5(C)C[C@@H](O)[C@H](O[C@@H]6O[C@H](CO)[C@@H](O)[C@H](O)[C@H]6O)C(C)(C)[C@@H]5CC[C@]34C)O[C@H](CO)[C@@H](O)[C@@H]2O)[C@H](O)[C@@H](O)[C@@H]1O`, the Activity was 157.2 pg/mL in data set [1] and “Dose-dependent effect” in data set [2].

Consider `CC(C)=CCC[C@](C)(O[C@@H]1O[C@H](CO[C@@H]2OC[C@@H](O)[C@H](O)[C@H]2O)[C@@H](O)[C@H](O)[C@H]1O)[C@H]1CC[C@]2(C)[C@@H]1[C@H](O)C[C@@H]1[C@@]3(C)C[C@@H](O)[C@H](O[C@@H]4O[C@H](CO)[C@@H](O[C@@H]5O[C@H](CO)[C@@H](O)[C@H](O)[C@H]5O)[C@H](O)[C@H]4O)C(C)(C)[C@@H]3CC[C@]12C`, for which the Activity entry is “Non-toxic” in data set [3], 197.2 pg/mL in data set [4], “Dose-dependent effect” in data set [2] and “Non-toxic” in data set [5].

Turning to `COc1ccc2ccc(=O)oc2c1CC=C(C)C` [OSTHOLE], the Activity turned out to be 187.3 pg/mL in data set [1] and 16.8 pg/mL in data set [6].
